Data from patent US20240391923A1, “METHIONINE ADENOSYLTRANSFERASE 2A INHIBITOR FOR TREATING MTAP DELETION-TYPE CANCER” (SUZHOU GENHOUSE BIO CO., LTD., priority 2022, published 2024).
Where two headings read alike, the source gives them in different places.

How the values were obtained:
[1] = test system: SDMA in HCT116-MTAP-knockout cell line; assay: Cell symmetric dimethylarginine (SDMA) test, In-cell Western, HCT116-MTAP-knockout; assay type: cell-based; conditions: Homo sapiens, 96 h
[2] = test system: SDMA in human colon cancer cell line HCT116; assay: Cell symmetric dimethylarginine (SDMA) test, In-cell Western, HCT116 (MTAP wild-type); assay type: cell-based
Summary of the method: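 SDMA level, an indirect readout of cellular MAT2A inhibition, measured by In-cell Western as background-subtracted 800/700 nm signal against DRAQ5. Cells exposed 4 days to six 1:4-diluted doses from 6 μM; inhibition relative to DMSO, IC50 from sigmoidal fit.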

[3] = test system: HCT116-MTAP-knockout (−/−) cell strain; assay: Tumor cell proliferation inhibition assay (CellTiter-Glo), HCT116-MTAP-knockout (-/-); assay type: cell-based; conditions: Homo sapiens, 120 h, 5-day treatment
Summary of the method: (§1)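 Cells were seeded, left 24 h, then exposed to test compounds in a 10-point, 1:3 dilution series from 10 μM top concentration alongside a DMSO group. After 5 days at 37° C./5% CO2, growth inhibition was judged from ATP level by CellTiter-Glo luminescence.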

DOHH-2 cell strain = assay: Tumor cell proliferation inhibition assay (CellTiter-Glo), DOHH-2; assay type: cell-based; conditions: Homo sapiens, 120 h, DOHH-2 cells, 5-day treatment
Method: After the HCT116-MTAP-knockout (−/−) cell strain, the HCT116-MTAP wild-type(+/+)-cell strain, the DOHH-2 cell strain, or the Hut-78 cell strain was treated with the test compound for 5 days, the ATP level was measured using a CellTiter-Glo kit of Promega to evaluate the inhibition of the test compound against the growth of the tumor cell strain.
In the present application, the HCT116-MTAP-knockout (−/−) cell strain, the HCT116-MTAP wild-type (+/+)-cell strain, the DOHH-2 cell strain, or the Hut-78 cell strain was seeded into a 96-well cell culture plate at an appropriate cell density. After 24 h, the cells were treated using the test compounds diluted 1:3 fold at the highest concentration of 10 μM for 10 gradients, and a DMSO treatment group was set up separately. The cells were cultured in a 37° C./5% CO2 incubator for 5 days.

[4] = Pharmacokinetic test in rats (IV and PO); assay type: in vivo; conditions: rat, plasma, SD rats; for half-life: read-out: T½ (converted)
[5] = biological target: MAT2A recombinant protein (Homo sapiens, UniProt P31153); assay: MAT2A inhibitory activity (malachite green colorimetric enzyme assay); assay type: biochemical
Summary of the method: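 Compounds tested over 10 points, 3-fold dilutions, top final concentration 1000 nM. Enzyme reaction: MAT2A, L-methionine, ATP, room temperature, 60 min, in HEPES pH 7.5 buffer with KCl, MgCl2 and DTT; inorganic phosphate read colorimetrically (malachite green, A630). Inhibition vs log concentration fitted for IC50.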

[6] = test system: HCT116-MTAP wild-type (+/+)-cell strain; assay: Tumor cell proliferation inhibition assay (CellTiter-Glo), HCT116-MTAP wild-type (+/+); assay type: cell-based; conditions: Homo sapiens, 120 h, 5-day treatment
Summary of the method: as §1

[7] = Pharmacokinetic test in mice (IV and PO); assay type: in vivo; conditions: mouse, plasma, BALB/c mice; for half-life: read-out: T½ (converted)
Hut-78 cell strain = assay: Tumor cell proliferation inhibition assay (CellTiter-Glo), Hut-78; assay type: cell-based; conditions: Hut-78 cells, 5-day treatment
Summary of the method: as §1

[8] = IC50 score class, read-out: Cell 96 h SDMA Inhibition (HCT116-MTAP−/−) (score)
[9] = Homo sapiens, HCT-116, 96 h, IC50 score class, read-out: Cell 96 h SDMA Inhibition (HCT116-MTAP+/+) (score)
[10] = Homo sapiens, HCT-116, 96 h, read-out: Cell 96 h SDMA inhibition (HCT116-MTAP+/+)
[11] = HCT116-MTAP-knockout (−/−) cells, IC50 score, read-out: Tumor cell 5-day relative growth inhibition (HCT116-MTAP−/−) (nM), score
[12] = HCT116-MTAP-knockout (−/−) cells, IC50 value, read-out: Tumor cell 5-day relative growth inhibition (HCT116-MTAP−/−)
[13] = IC50 score, read-out: Tumor cell 5-day relative growth inhibition (DOHH-2) (nM), score
[14] = IC50 value, read-out: Tumor cell 5-day relative growth inhibition (DOHH-2)
[15] = IC50 score class, read-out: MAT2A Inhibition (score)
[16] = read-out: Cell 96 h SDMA Inhibition (HCT116-MTAP−/−)
[17] = HCT116-MTAP wild-type (+/+) cells, IC50 score, read-out: Tumor cell 5-day relative growth inhibition (HCT116-MTAP+/+) (nM), score
[18] = HCT116-MTAP wild-type (+/+) cells, IC50 value, read-out: Tumor cell 5-day relative growth inhibition (HCT116-MTAP+/+)
[19] = Homo sapiens, HuT78, 120 h, IC50 score, read-out: Tumor cell 5-day relative growth inhibition (Hut-78) (nM), score
[20] = Homo sapiens, HuT78, 120 h, IC50 value, read-out: Tumor cell 5-day relative growth inhibition (Hut-78)
[21] = IC50 score, read-out: Tumor cell 5-day relative growth inhibition (Hut-78) (nM), score
[22] = IC50 value, read-out: Tumor cell 5-day relative growth inhibition (Hut-78)

MAT2A recombinant protein, sequence (P31153 whole entry): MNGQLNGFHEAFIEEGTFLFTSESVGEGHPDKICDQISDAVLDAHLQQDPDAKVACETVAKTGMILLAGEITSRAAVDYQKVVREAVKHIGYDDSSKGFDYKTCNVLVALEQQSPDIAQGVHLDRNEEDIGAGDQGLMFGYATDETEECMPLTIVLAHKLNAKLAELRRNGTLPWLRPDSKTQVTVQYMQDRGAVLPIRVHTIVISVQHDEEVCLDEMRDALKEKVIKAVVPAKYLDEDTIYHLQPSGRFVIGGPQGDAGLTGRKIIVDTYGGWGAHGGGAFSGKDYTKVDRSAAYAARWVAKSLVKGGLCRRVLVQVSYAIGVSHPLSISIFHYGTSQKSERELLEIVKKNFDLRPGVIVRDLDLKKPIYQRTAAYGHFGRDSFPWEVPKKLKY

Row | Structure (SMILES) | IC50 [1, 8] [nM] | IC50 [2, 9] [nM] | IC50 [2, 10] [nM] | IC50 (DOHH-2 cell strain; [13]) [nM] | IC50 (DOHH-2 cell strain; [14]) [nM] | IC50 [5, 15] [nM] | IC50 ([5]; read-out: MAT2A Inhibition) [nM] | IC50 [1, 16] [nM] | IC50 (Hut-78 cell strain; [19]) [nM] | IC50 (Hut-78 cell strain; [20]) [nM] | also measured
1 | CCn1cc2c(n1)c(=O)n(-c1cccnc1)c1cc(Cl)ccc21 [Compound B3] | < 200 | > 3000 | 4280 | 500 to 2000 | 940 |  |  |  |  |  | IC50 [3, 11]: < 500 nM; IC50 [3, 12]: 228 nM; AUC ([4]; IV 1 mg/kg): 7.81 µM·h; bioavailability ([4]; IV 1 mg/kg, PO 5 mg/kg): 67%; half-life ([4]; IV 1 mg/kg): 0.08 h; AUC ([4]; PO 5 mg/kg): 26 µM·h; half-life ([4]; PO 5 mg/kg): 0.97 h
2 | CCn1cc2c(n1)c(=O)n(-c1cccc(F)c1)c1cc(Cl)ccc21 [Compound B4] | 200 to 1000 | > 3000 | 9300 | ≥ 2000 |  | < 100 | 38.8 | 782 |  |  | AUC ([4]; IV 1 mg/kg): 2.5 µM·h; clearance ([4]; IV 1 mg/kg): 21.7 mL/min/kg; bioavailability ([4]; IV 1 mg/kg, PO 5 mg/kg): 68%; half-life ([4]; IV 1 mg/kg): 0.62 h; AUC ([4]; PO 5 mg/kg): 7.95 µM·h; half-life ([4]; PO 5 mg/kg): 2.1 h
3 | COc1ccc(Cn2cc3c(n2)c(=O)n(-c2cccnc2)c2cc(Cl)ccc32)cc1 [Compound B28] | < 200 | 200 to 1000 | 342 | < 500 | 444 |  |  | 30.5 |  |  | IC50 [3, 11]: < 500 nM; IC50 [3, 12]: 75 nM; IC50 [6, 17]: < 500 nM; IC50 [6, 18]: 279 nM; AUC ([4]; IV 1 mg/kg): 7.6 µM·h; clearance ([4]; IV 1 mg/kg): 16 mL/min/kg; bioavailability ([4]; IV 1 mg/kg, PO 5 mg/kg): 60%; half-life ([4]; IV 1 mg/kg): 1.7 h; AUC ([4]; PO 5 mg/kg): 7.6 µM·h; half-life ([4]; PO 5 mg/kg): 3.3 h
4 | CCn1cc2c(n1)c(=O)n(-c1cccnc1)c1nc(C(F)(F)F)ccc21 [Compound B29] | < 200 | 200 to 1000 | 599 | 500 to 2000 | 719 | < 100 | 18.5 | 90.4 |  |  | IC50 [3, 11]: < 500 nM; IC50 [3, 12]: 154 nM; IC50 [6, 17]: < 500 nM; IC50 [6, 18]: 437 nM; AUC ([7]; IV 2 mg/kg): 1.86 µM·h; clearance ([7]; IV 2 mg/kg): 46.7 mL/min/kg; bioavailability ([7]; IV 2 mg/kg, PO 10 mg/kg): 95%; half-life ([7]; IV 2 mg/kg): 0.3 h; Vd ([7]; IV 2 mg/kg, read-out: Vz): 1.3 L/kg; AUC ([7]; PO 10 mg/kg): 9.32 µM·h; half-life ([7]; PO 10 mg/kg): 0.43 h
5 | CCn1cc2c(n1)c(=O)n(-c1cccnc1C)c1cc(Cl)ccc21 [Compound B30] | < 200 | 200 to 1000 | 230 | < 500 | 400 | < 100 | 32.7 | 7.6 | < 500 | 33.1 | 
6 | CC(C)n1cc2c(n1)c(=O)n(-c1cccnc1)c1cc(Cl)ccc21 [Compound B39] | 200 to 1000 | 1000 to 3000 | 1530 | ≥ 2000 | 3790 |  |  | 586 | < 500 | 98.6 | 
7 | O=c1c2nn(CC(F)F)cc2c2ccc(Cl)cc2n1-c1cccnc1 [Compound B40] | 200 to 1000 | > 3000 | 4470 | ≥ 2000 | 2400 |  |  | 376 | 500 to 2000 | 1290 | 
8 | O=c1c2nn(Cc3cccnc3)cc2c2ccc(Cl)cc2n1-c1cccnc1 [Compound B47] | < 200 | > 3000 | 47000 | 500 to 2000 | 1670 | < 100 | 29.7 | 154 | < 500 | 200 | 
9 | Cn1ccc(Cn2cc3c(n2)c(=O)n(-c2cccnc2)c2cc(Cl)ccc32)n1 [Compound B48] | < 200 | > 3000 | 5140 | 500 to 2000 | 880 | < 100 | 29.3 | 63.5 | < 500 | 81.8 | IC50 [3, 11]: < 500 nM; IC50 [3, 12]: 119 nM; IC50 [6, 17]: 500 to 2000 nM; IC50 [6, 18]: 1730 nM
10 | Cn1cc2c(n1)c(=O)n(-c1ccc3cn[nH]c3c1)c1cc(Cl)ccc21 [Compound B57] | 200 to 1000 | > 3000 | > 3000 | ≥ 2000 | 2040 | < 100 | 54.3 | 579 | ≥ 2000 | 2130 | 
11 | Cc1ncccc1-n1c(=O)c2nn(C)cc2c2ccc(Cl)cc21 [Compound B65] |  |  |  | < 500 | 62.9 | < 100 | 34.1 |  |  |  | IC50 ([2]; 96 h, IC50 score class, read-out: Cell 96 h SDMA Inhibition (HCT116-MTAP+/+) (score)): < 200 nM; IC50 ([2]; 96 h, read-out: Cell 96 h SDMA inhibition (HCT116-MTAP+/+)): 191 nM; IC50 (Hut-78 cell strain; [21]): < 500 nM; IC50 (Hut-78 cell strain; [22]): 23.8 nM
12 | Cc1ncccc1-n1c(=O)c2nn(C)cc2c2ccc(C(F)(F)F)nc21 [Compound B76] | < 200 | 200 to 1000 | 216 | < 500 | 82 |  |  | 10 |  |  | IC50 (Hut-78 cell strain; [21]): < 500 nM; IC50 (Hut-78 cell strain; [22]): 10.6 nM
13 | Cc1ncccc1-n1c(=O)c2nn(C)cc2c2ccc(OC(F)(F)F)cc21 [Compound B77] | < 200 | 200 to 1000 | 396 | < 500 | 390 | < 100 | 43.1 | 32.8 | < 500 | 87.8 | 
14 | Cn1cc2c(n1)c(=O)n(-c1cccc(O)c1)c1cc(C(F)(F)F)ccc21 [Compound B150] | < 200 | 200 to 1000 | 861 | 500 to 2000 | 654 | < 100 | 27.8 | 54.3 | < 500 | 140 | 
15 | O=c1c2n[nH]cc2c2cc(F)c(Cl)cc2n1-c1cccnc1C1CC1 [Compound B425] | < 200 | > 3000 | > 10000 |  |  | < 100 | 6 | 4.3 |  |  | IC50 ([3]; HCT116-MTAP−/− cells, IC50 class score, read-out: Tumor cell 5-day relative growth inhibition (HCT116-MTAP−/−) (nM), score): < 500 nM; IC50 ([3]; HCT116-MTAP−/− cells, read-out: Tumor cell 5-day relative growth inhibition (HCT116-MTAP−/−)): 260 nM; IC50 ([6]; HCT116-MTAP+/+ cells, IC50 class score, read-out: Tumor cell 5-day relative growth inhibition (HCT116-MTAP+/+) (nM), score): ≥ 2000 nM; IC50 ([6]; HCT116-MTAP+/+ cells, read-out: Tumor cell 5-day relative growth inhibition (HCT116-MTAP+/+)): > 10000 nM; AUC ([4]; IV 1 mg/kg): 21 µM·h; clearance ([4]; IV 1 mg/kg): 2 mL/min/kg; bioavailability ([4]; IV 1 mg/kg, PO 5 mg/kg): 116%; half-life ([4]; IV 1 mg/kg): 14 h; AUC ([4]; PO 5 mg/kg): 128 µM·h; half-life ([4]; PO 5 mg/kg): 11.6 h
